Data as given in ChEMBL document CHEMBL4840346, “Amakusamine from a Psammocinia sp. Sponge: Isolation, Synthesis, and SAR Study on the Inhibition of RANKL-Induced Formation of Multinuclear Osteoclasts” (J Nat Prod, 2021).
The source made the active and inactive calls. The calls are words filed in the database; no cut-off is given here.

Experiments:
RAW264.7 [1] = test: Inhibition of RANKL-induced osteoclastogenesis in mouse RAW264.7 cells assessed as reduction in number of TRAP-positive multinuclear cells measured after 4 days by TRAP staining based assay; assay type: functional, cell-based
RAW264.7 [2] = test: Cytotoxicity against mouse RAW264.7 cells at 50 uM by MTT assay; assay type: cell-based; conditions: raw264.7, 50 µM
RAW264.7 [3] = test: Cytotoxicity against mouse RAW264.7 cells at 25 uM by MTT assay; assay type: cell-based; conditions: raw264.7, 25 µM
RAW264.7 [4] = test: Inhibition of RANKL-induced osteoclastogenesis in mouse RAW264.7 cells assessed as reduction in NFATc1 mRNA expression measured after 24 hrs by RT-PCR analysis; assay type: functional, cell-based; conditions: dose 30-50 µM
RAW264.7 [5] = test: Inhibition of RANKL-induced osteoclastogenesis in mouse RAW264.7 cells assessed as reduction in number of TRAP-positive multinuclear cells at 50 uM measured after 4 days by TRAP staining based assay; assay type: functional; conditions: for inhibition: time 4.0 day

Q: With `Clc1c2c(c(Cl)c3[nH]ccc13)OCO2` as the compound, how does the IC50 (RAW264.7 [1]; Mus musculus, RAW264.7, 96 h) read?
A: Its IC50 is 40 µM.

Q: What about the Activity (RAW264.7 [2]) of the same compound?
A: Its Activity is “Non-Toxic”.

Q: For `NCCc1c[nH]c2c(Br)c3c(c(Br)c12)OCO3`, which IC50 (RAW264.7 [1]; Mus musculus, RAW264.7, 96 h) is on record?
A: The IC50 was 5.9 µM.

Q: And the Activity (RAW264.7 [3])?
A: Its Activity is “Toxic”.

Q: Which results are given for `Brc1c2c(c(Br)c3c1OCO3)NCC2`?
A: IC50 (RAW264.7 [1]; Mus musculus, RAW264.7, 96 h): 25.6 µM; Activity (RAW264.7 [2]): Non-Toxic

Q: What does the source list for `Brc1c2c(cc3cc[nH]c13)OCO2`?
A: IC50 (RAW264.7 [1]; Mus musculus, RAW264.7, 96 h): 35.4 µM; Activity (RAW264.7 [2]): Non-Toxic

Q: How did the IC50 (RAW264.7 [1]; Mus musculus, RAW264.7, 96 h) turn out when `COc1c(OC)c(Br)c2[nH]ccc2c1Br` was run?
A: The IC50 was 6.3 µM.

Q: And the Activity (RAW264.7 [2])?
A: The Activity was “Non-Toxic”.

Q: `Brc1c2c(c(Br)c3[nH]ccc13)OCO2` was tested. Which inhibition (RAW264.7 [4]) did it give?
A: The inhibition was “Dose-Dependent Effect”.

Q: And the IC50 (RAW264.7 [1]; Mus musculus, RAW264.7, 96 h)?
A: The IC50 was 10.5 µM.

Q: And the IC50 (RAW264.7 [1]; raw264.7)?
A: The IC50 was 9.4 µM.

Q: What about the inhibition (RAW264.7 [1]; time 4.0 day) of the same compound?
A: Its inhibition is “Dose-Dependent Effect”.

Q: What about the Activity (RAW264.7 [2]) of the same compound?
A: Its Activity is “Non-Toxic”.

Q: For `Brc1[nH]c2cc3c(cc2c1Br)OCO3`, which inhibition at 50 µM (RAW264.7 [5]; RAW264.7, 96 h, time 4 day) is on record?
A: Its inhibition at 50 µM is 40%.

Q: And the Activity (RAW264.7 [2])?
A: The Activity was “Non-Toxic”.

Q: With `Brc1c2c(cc3[nH]ccc13)OCO2` as the compound, how does the IC50 (RAW264.7 [1]; Mus musculus, RAW264.7, 96 h) read?
A: Its IC50 is 16.8 µM.

Q: And the Activity (RAW264.7 [2])?
A: Its Activity is “Non-Toxic”.

Q: What does the source list for `CC(=O)n1ccc2c(Br)c3c(c(Br)c21)OCO3`?
A: IC50 (RAW264.7 [1]; Mus musculus, RAW264.7, 96 h): 11.7 µM; Activity (RAW264.7 [2]): Non-Toxic

Q: Which inhibition (RAW264.7 [5]) does the source give for `c1cc2cc3c(cc2[nH]1)OCO3` here?
A: The inhibition was “inactive”.

Q: And the Activity (RAW264.7 [2])?
A: Its Activity is “Non-Toxic”.

Q: For `OCc1c[nH]c2c(Br)c3c(c(Br)c12)OCO3`, which IC50 (RAW264.7 [1]; Mus musculus, RAW264.7, 96 h) is on record?
A: Its IC50 is 10 µM.

Q: And the Activity (RAW264.7 [2])?
A: Its Activity is “Non-Toxic”.

Q: Which results are given for `CCCCCCCCCCCCCC(=O)n1ccc2c(Br)c3c(c(Br)c21)OCO3`?
A: inhibition (RAW264.7 [5]): inactive; Activity (RAW264.7 [2]): Non-Toxic

Q: Which results are given for `O=Cc1c[nH]c2c(Br)c3c(c(Br)c12)OCO3`?
A: IC50 (RAW264.7 [1]; Mus musculus, RAW264.7, 96 h): 13.9 µM; Activity (RAW264.7 [2]): Non-Toxic

Q: For `CCCC(=O)n1ccc2c(Br)c3c(c(Br)c21)OCO3`, which IC50 (RAW264.7 [1]; Mus musculus, RAW264.7, 96 h) is on record?
A: The IC50 was 7.9 µM.

Q: And the Activity (RAW264.7 [2])?
A: Its Activity is “Non-Toxic”.

Q: How did the inhibition (RAW264.7 [5]) turn out when `O=C(c1ccccc1)n1ccc2c(Br)c3c(c(Br)c21)OCO3` was run?
A: The inhibition was “inactive”.

Q: What about the Activity (RAW264.7 [2]) of the same compound?
A: The Activity was “Non-Toxic”.

Q: Which results are given for `CCCCCCCC(=O)n1ccc2c(Br)c3c(c(Br)c21)OCO3`?
A: IC50 (RAW264.7 [1]; Mus musculus, RAW264.7, 96 h): 11.1 µM; Activity (RAW264.7 [2]): Non-Toxic

Q: With `Cc1c[nH]c2c(Br)c3c(c(Br)c12)OCO3` as the compound, how does the IC50 (RAW264.7 [1]; Mus musculus, RAW264.7, 96 h) read?
A: The IC50 was 8.1 µM.

Q: What about the Activity (RAW264.7 [2]) of the same compound?
A: Its Activity is “Non-Toxic”.
